These results are taken from patent publication US9260382B2, “Methods of reducing virulence in bacteria” (priority 2010, dated 2016).

One assay deals with hrpA promoter (T3SS). The experiment in a line: hrpA promoter-probe phrpA in Erwinia amylovora 273, flow cytometry. The note with it: Ea273 (phrpA), HIM + 100 μM compound. In kind it is cell-based. In outline:
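Erwinia amylovora 273 carrying an hrpA promoter–GFP fusion (pPROBE-NT) was grown in hrp-inducing medium with 100 μM compound or DMSO. Promoter activity read as GFP intensity by flow cytometry at 6 h and 9 h.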

Assay [1] relates to Dickeya dadantii 3937 (Ech3937). The experiment in a line: Bacterial growth in MM supplemented with compound. The format is cell-based. The note with it: compound added into the MM. The text has this:
(§1) Phenolic compounds constitute an important class of organic substances produced by plants. The phenolic compound SA is a signaling molecule that plays a role in host defenses. OCA and TCA are the biosynthetic precursors of SA and are also reported to induce the expression of defense-related genes in plants. OCA, TCA, and SA were examined to elucidate their effects on the expression of T3SS genes. The expression of the T3SS gene hrpN was examined in MM and MM supplemented with OCA, TCA, and SA, at concentrations of 0.05, 0.1, and 0.2 mM, respectively. FIGS. 2A and 2B show the promoter activities of hrpN in Dickeya dadantii 3937 (Ech3937) grown in MM and MM supplemented with 0.05, 0.1, and 0.2 mM OCA, TCA, and SA at 12 h (FIG. 2A) and 24 h (FIG. 2B) post-inoculation. GFP intensity was determined on gated populations of bacterial cells by flow cytometry and analyzed with the Cell Quest software (BD Biosciences, San Jose, Calif.). The growth of Ech3937 in MM supplemented with different concentrations of OCA, TCA and SA was recorded. Compared with MM alone, the average GFP fluorescence intensity of bacterial cells of Ech3937 (phrpN) was increased approximately 4-fold when 0.05 mM of OCA and TCA were added to the medium (FIGS. 2A, 2B).
The expression of the T3SS gene hrpA was further examined in MM and MM supplemented with PCA at concentrations of 0.001, 0.005, 0.01, 0.05 and 0.1 mM respectively. FIGS. 16A and 16B show the promoter activities of hrpA in Dickeya dadantii 3937 (Ech3937) grown in minimum medium (MM) and MM supplemented with different amount of p-coumaric acid (PCA) at 12 h (FIG. 16A) and 24 h (FIG. 16B) post-inoculation. GFP intensity was determined on gated populations of bacterial cells by flow cytometry and analyzed with the Cell Quest software (BD Biosciences, San Jose, Calif.). The growth of Ech3937 in MM supplemented with different concentrations of PCA was recorded. Compared with MM alone, the average GFP fluorescence intensity of bacterial cells of Ech3937 (phrpA) was reduced more than 4-fold when 0.05 and 0.1 mM of PCA were added to the medium (FIGS. 16A, 16B).

Assay [2] concerns pPROBE-AT vector without promoter insert. The experiment in a line: pPROBE-AT vector control, flow cytometry. In kind it is cell-based, Dickeya dadantii 3937. As to conditions: for GFP Mean Fluorescence Intensity, vector control: Ech3937 (pPROBE-AT), MM + 0.1 mM compound; for mean fluorescence intensity of GFP, vector control: 3937 (pPROBE-AT), MM + 100 μM. As to the method:
(§2) FACS analysis of promoter activity of dspE, hrpA, hrpL, hrpN, and hrpS was carried out as described (Peng et al., 2006). Briefly, the wild-type Ech3937 and the mutant strains carrying the promoter reporter plasmid were grown on LB broth at 28° C. overnight and transferred to appropriate media. For FACS analysis, samples were collected by centrifugation, washed with 1× phosphate buffer saline (PBS) at 13,000 rpm for 1 min, and re-suspended in 1×PBS to ca 10^6 CFU/ml prior to being run in a FACS Calibur flow cytometer (BD Biosciences, CA). Three replicates were performed for each treatment.
(In general: Flow cytometry measures light scatter and fluorescence of single cells or particles in a stream.)

Another assay deals with hrpN promoter (T3SS). The experiment in a line: GFP reporter plasmid phrpN, flow cytometry of hrpN promoter activity. In kind it is cell-based, Dickeya dadantii 3937. The note with it: for GFP Mean Fluorescence Intensity, hrpN promoter: MM + 0.1 mM compound; for mean fluorescence intensity of GFP, hrpN promoter: 3937 (phrpN), MM + 100 μM. As to the method:
as §2, §1

The subject of another assay is hrpL promoter. The experiment in a line: GFP reporter plasmid phrpL, flow cytometry of hrpL promoter activity. In kind it is cell-based, Dickeya dadantii 3937. As to conditions: for GFP Mean Fluorescence Intensity, hrpL promoter: MM + 0.1 mM compound; for mean fluorescence intensity of GFP, hrpL promoter: 3937 (phrpL), MM + 100 μM. As to the method:
as §2

Another assay relates to rsmB RNA. The experiment in a line: qRT-PCR relative mRNA level of rsmB. The format is cell-based, Dickeya dadantii 3937. As to the method: Bacterial strains were grown in MM. Total RNA from the bacterial cells was isolated by using the TRI reagent method (Sigma, Mo.) and treated with Turbo DNA-free DNase kits (Ambion, Tex.) as described (Peng et al., 2006). An iScript cDNA Synthesis Kit (Bio-Rad, CA) was used to synthesize cDNA from 0.5 μg of treated total RNA. The Real Master Mix (Eppendorf, Westbury, N.Y.) was used for qRT-PCR reaction to quantify the cDNA level of target genes in different samples. The rplU was used as the endogenous control for data analysis. qRT-PCR data were analyzed using Relative Expression Software Tool as described (Pfaffl, M. W., Horgan, G. W., and Dempfle, L. (2002) Relative expression software tool (REST) for group-wise comparison and statistical analysis of relative expression results in real-time PCR. Nucleic Acids Res 30:e36.).
On the technique in general: Real-time PCR tracks product formation cycle by cycle.

The test system of a further assay is hrpS promoter. The experiment in a line: GFP reporter plasmid phrpS, flow cytometry of hrpS promoter activity. The note with it: for GFP Mean Fluorescence Intensity, hrpS promoter: MM + 0.1 mM compound; for mean fluorescence intensity of GFP, hrpS promoter: 3937 (phrpS), MM + 100 μM. The format is cell-based, Dickeya dadantii 3937. In outline: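 Wild-type Ech3937 and mutant strains carrying the phrpS GFP reporter were grown overnight in LB at 28 °C, then transferred to appropriate media with compounds. Cells were washed and resuspended in PBS to ca 10^6 CFU/ml for flow cytometry, three replicates per treatment.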

The mark [3] stands for this setting: hrpL mutant WPP96 (phrpN), 12 h.

Molecules are shown by their SMILES. Several values for one entry are separate records, joined by “and”; a condition that tells them apart may be missing. Equal entries are not always repeated.

Take `O=C(O)/C=C/c1ccc(O)cc1` [Compound 004, para-coumaric acid]: the entries for the “Avg MFI ± SD, hrpA expression” value with hrpA promoter (T3SS) (6 h) and in the assay on hrpA promoter (T3SS) (9 h) were 920.6 ± 29.1 and 993.8 ± 43.3, respectively. Further, the “effect on bacterial growth of Ech3937 in MM, in words” value in assay [1] was “Inhibition of bacterial growth was not observed”. For the same compound, the “GFP Mean Fluorescence Intensity, vector control” value in assay [2] (12 h, listed as PCA) is 2.2 ± 0.2 and 2.3 ± 0.1; in assay [2] (24 h), 4.9 ± 0.1. Besides, the “GFP Mean Fluorescence Intensity, hrpN promoter” value in the assay on hrpN promoter (T3SS) (Ech3937 (phrpN), 12 h, listed as PCA) was 6.8 ± 0.8 and 4.3 ± 0.1; with hrpN promoter (T3SS) (Ech3937 (phrpN), 24 h, listed as PCA) it was 8.8 ± 2.1; in the assay on hrpN promoter (T3SS) (setting [3]) it was 3.0 ± 0.0; in the assay with hrpN promoter (T3SS) (hrpL mutant WPP96 (phrpN), 24 h), 4.3 ± 0.1; in the assay on hrpN promoter (T3SS) (hrpS mutant WPP90 (phrpN), 12 h), 3.5 ± 0.1; with hrpN promoter (T3SS) (hrpS mutant WPP90 (phrpN), 24 h), 5.1 ± 0.1. For the same compound, the “GFP Mean Fluorescence Intensity, hrpN promoter” value turned out to be 3.5 ± 0.2 with hrpN promoter (T3SS) (hrpX mutant WPP67 (phrpN), 12 h); 6.3 ± 0.7 in the assay on hrpN promoter (T3SS) (hrpX mutant WPP67 (phrpN), 24 h); 3.6 ± 0.1 with hrpN promoter (T3SS) (hrpY mutant WPP92 (phrpN), 12 h); 5.5 ± 0.3 in the assay on hrpN promoter (T3SS) (hrpY mutant WPP92 (phrpN), 24 h). The “GFP Mean Fluorescence Intensity, hrpL promoter” value with hrpL promoter (Ech3937 (phrpL), 12 h) is 7.8 ± 0.1. Moreover, the “rsmB mRNA compared with MM alone, in words” value in the assay on rsmB RNA (0.1 mM in MM) is “No significant difference”.
In the case of `O=C(O)/C=C/c1ccccc1` [Compound 001, trans-cinnamic acid], the “Avg MFI ± SD, hrpA expression” value turned out to be 471.2 ± 12.6 with hrpA promoter (T3SS) (6 h) and 432.6 ± 17.8 in the assay on hrpA promoter (T3SS) (9 h). Also, the “effect on bacterial growth of Ech3937 in MM, in words” value in assay [1] is reported as “No reduction of bacterial growth”. In addition, the “GFP Mean Fluorescence Intensity, vector control” value in assay [2] (12 h) is on record as 1.9 ± 0. Further, the “increase of average GFP fluorescence intensity of Ech3937 (phrpN) compared with MM alone” value with hrpN promoter (T3SS) (0.05 mM compound, 12 h and 24 h (FIGS. 2A, 2B)) is “approximately 4 fold”. In addition, in the assay with hrpN promoter (T3SS) (0.1 mM, 12 h (FIG. 5)), the “hrpN expression in Ech3937 and hrpX, hrpY, hrpS mutants, in words” value is “induced the expression of hrpN in Ech3937, but not in hrpX, hrpY, and hrpS mutants”. Further, the “GFP Mean Fluorescence Intensity, hrpN promoter” value in the assay on hrpN promoter (T3SS) (Ech3937 (phrpN), 12 h) is 103 ± 1; in the assay with hrpN promoter (T3SS) (setting [3]), 3.3 ± 0. Further, the “GFP Intensity of Ech3937 (phrpN)” value came out at 65.1 ± 6.8 with hrpN promoter (T3SS) (MM + 0.2 μM compound, 12 h); 163 ± 25 in the assay on hrpN promoter (T3SS) (MM + 0.2 μM compound, 24 h); 73.4 ± 4.2 in the assay on hrpN promoter (T3SS) (MM + 0.5 μM compound, 12 h); 158 ± 20 with hrpN promoter (T3SS) (MM + 0.5 μM compound, 24 h); 134 ± 5.6 with hrpN promoter (T3SS) (MM + 5 μM compound, 12 h); 266 ± 14 in the assay with hrpN promoter (T3SS) (MM + 5 μM compound, 24 h). Moreover, the “GFP Intensity of Ech3937 (phrpN)” value was determined as 147 ± 18 in the assay on hrpN promoter (T3SS) (MM + 10 μM compound, 12 h) and 284 ± 12 in the assay with hrpN promoter (T3SS) (MM + 10 μM compound, 24 h). Besides, the “GFP Mean Fluorescence Intensity, hrpS promoter” value in the assay with hrpS promoter (Ech3937 (phrpS), 12 h) worked out at 54 ± 2; in the assay on hrpS promoter (hrpL mutant WPP96 (phrpS), 12 h), 360 ± 16. Moreover, the “GFP Mean Fluorescence Intensity, hrpL promoter” value in the assay on hrpL promoter (Ech3937 (phrpL), 12 h) came to 19 ± 1; in the assay with hrpL promoter (hrpL mutant WPP96 (phrpL), 12 h), 331 ± 27. In addition, the “rsmB mRNA relative expression ratio (MM alone normalized to 1)” value with rsmB RNA (Ech3937 in MM supplemented with compound) is reported as 1.58.
As for `O=C(/C=C/c1ccc(O)cc1)NO` [Compound 103, trans-4-Hydroxycinnamohydroxamic acid], the “Avg MFI ± SD, hrpA expression” value in the assay on hrpA promoter (T3SS) (6 h) came out at 206.9 ± 3.9; in the assay with hrpA promoter (T3SS) (9 h), 168.2 ± 24.9. Further, the figures for the “mean fluorescence intensity of GFP, vector control” value in assay [2] (12 h) and in assay [2] (24 h) were 3.0 ± 0.6 and 4.3 ± 0.6, respectively. Further, the results for the “mean fluorescence intensity of GFP, hrpN promoter” value in the assay with hrpN promoter (T3SS) (12 h) and with hrpN promoter (T3SS) (24 h) were 5.8 ± 0.7 and 5.4 ± 0.3, respectively. In addition, the “mean fluorescence intensity of GFP, hrpS promoter” value with hrpS promoter (12 h) was found to be 27.7 ± 1.5; with hrpS promoter (24 h), 26.4 ± 0.6. In addition, the “inhibitory effect on T3SS hrpS expression, in words” value in the assay on hrpS promoter (reporter plasmid phrpS) is “inhibited hrpS”. In addition, the entries for the “mean fluorescence intensity of GFP, hrpL promoter” value with hrpL promoter (12 h) and in the assay on hrpL promoter (24 h) were 7.6 ± 0.2 and 7.7 ± 0.2, respectively.
